One assay addresses T1, M1 muscarinic receptor (Homo sapiens, UniProt P11229).
T1 construct: expressed in transfected cells; host or cells: CHO (M1-CHO)
T1 sequence (P11229 1-460): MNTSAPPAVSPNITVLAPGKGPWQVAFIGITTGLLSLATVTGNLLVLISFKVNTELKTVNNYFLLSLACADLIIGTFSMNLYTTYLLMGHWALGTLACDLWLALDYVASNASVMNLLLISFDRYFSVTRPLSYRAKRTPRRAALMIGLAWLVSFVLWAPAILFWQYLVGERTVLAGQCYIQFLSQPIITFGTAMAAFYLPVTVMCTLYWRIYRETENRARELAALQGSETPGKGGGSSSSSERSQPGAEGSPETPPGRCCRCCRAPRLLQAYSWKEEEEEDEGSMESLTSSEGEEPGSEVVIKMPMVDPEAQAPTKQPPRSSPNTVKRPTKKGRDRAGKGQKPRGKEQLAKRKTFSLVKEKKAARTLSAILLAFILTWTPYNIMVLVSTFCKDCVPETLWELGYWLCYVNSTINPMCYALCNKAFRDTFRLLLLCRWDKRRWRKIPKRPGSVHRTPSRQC
The experiment in a line: Functional mobilization of intracellular calcium (FLIPR), M1-CHO cells. Format: cell-based. To be noted: for Emax: 100% efficacy is the maximum response obtained using Carbachol as a control; for M1 Activity: M1-CHO cells, FLIPR calcium mobilization. Put shortly: (§1)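 Calcium flux recorded 60 s (ex 488, em 540 nm) in dye-loaded M1- or M4-CHO cells in pH 7.4 buffer with 1 mM probenecid. Inhibition measured against carbachol EC80 after 15 min compound pre-incubation or co-addition; agonism measured by compound addition alone. Final DMSO 0.5%.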
For orientation: Calcium assays in cells follow changes in intracellular calcium, usually with a dye or a luminescent sensor.

A further assay addresses T2, M4 muscarinic receptor (Homo sapiens, UniProt P08173).
T2 construct: expressed in transfected cells; host or cells: CHO (M4-CHO)
T2 sequence (P08173 1-479): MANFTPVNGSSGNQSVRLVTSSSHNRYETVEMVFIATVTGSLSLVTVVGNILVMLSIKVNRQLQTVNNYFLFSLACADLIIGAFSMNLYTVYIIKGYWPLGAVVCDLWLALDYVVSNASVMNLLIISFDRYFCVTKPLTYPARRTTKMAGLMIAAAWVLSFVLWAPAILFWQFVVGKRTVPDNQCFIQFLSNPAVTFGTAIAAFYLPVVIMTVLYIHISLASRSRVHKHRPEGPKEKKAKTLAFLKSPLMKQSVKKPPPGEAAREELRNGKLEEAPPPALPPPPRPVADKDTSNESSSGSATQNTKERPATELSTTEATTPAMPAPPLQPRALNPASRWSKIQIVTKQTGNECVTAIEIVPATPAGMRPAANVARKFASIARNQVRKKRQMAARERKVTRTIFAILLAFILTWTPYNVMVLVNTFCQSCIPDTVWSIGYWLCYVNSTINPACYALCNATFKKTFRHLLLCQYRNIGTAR
The experiment in a line: Functional mobilization of intracellular calcium (FLIPR), M4-CHO cells. Format: cell-based. The settings on record: for Emax: 100% efficacy is the maximum response obtained using Carbachol as a control; for M4 Activity: M4-CHO cells, FLIPR calcium mobilization. The procedure, abridged:
as §1

SMILES strings stand for the structures.

Broadly, the Emax is the greatest response seen or fitted, relative to the assay's reference.

Regarding `CC(=O)N1Cc2ccccc2C2(CCN(C3CCSCC3)CC2)C1` [compound 268], at M1 muscarinic receptor, the maximal response (Emax) was 25 to 100% and the “M1 Activity” value was “++ (activity was measured to be from 1.0 μM to 5.0 μM)”. In addition, on M4 muscarinic receptor, the Emax fell in the range of 25 to 100% and the “M4 Activity” value is “++ (activity was measured to be from 1.0 μM to 5.0 μM)”.

On to `CCOC(=O)N1CCC(CN2CCC3(CC2)CN(C(=O)C(C)C)Cc2ccccc23)CC1` [compound 270], for which, on M1 muscarinic receptor, the Emax was in the range of 25 to 100% and the “M1 Activity” value is reported as “+++ (activity was measured to be less than 1.0 μM)”. For the same molecule, at M4 muscarinic receptor, the Emax was in the range of 25 to 100% and the “M4 Activity” value is listed as “+++ (activity was measured to be less than 1.0 μM)”.

As to `CC(=O)N1Cc2ccccc2C2(CCN(Cc3cccnc3)CC2)C1` [compound 274], at M1 muscarinic receptor, the Emax was less than 25% and the “M1 Activity” value is “+ (activity was measured to be greater than 5.0 μM)”. Further, at M4 muscarinic receptor, the Emax was less than 25% and the “M4 Activity” value was “+ (activity was measured to be greater than 5.0 μM)”.

On to `CCOC(=O)N1CCC(CN2CCC3(CC2)CN(C(=O)c2nc(C)oc2C)Cc2ccccc23)CC1` [compound 275], for which, on M1 muscarinic receptor, the Emax lay in the range of 25 to 100% and the “M1 Activity” value is reported as “+++ (activity was measured to be less than 1.0 μM)”. Besides, on M4 muscarinic receptor, the maximal response (Emax) fell in the range of 25 to 100% and the “M4 Activity” value is given as “+++ (activity was measured to be less than 1.0 μM)”.

As to `COC(=O)c1ccc(CN2CCC3(CC2)CN(C(C)=O)Cc2ccccc23)cc1` [compound 276], on M1 muscarinic receptor, the Emax lay within 25 to 100% and the “M1 Activity” value was “++ (activity was measured to be from 1.0 μM to 5.0 μM)”. In addition, at M4 muscarinic receptor, the Emax was 25 to 100% and the “M4 Activity” value was “++ (activity was measured to be from 1.0 μM to 5.0 μM)”.

In the case of `CCOC(=O)N1CCC(N2CCC3(CC2)OC(=O)c2ccc(C)cc23)CC1` [compound 277], on M1 muscarinic receptor, the Emax lay within 25 to 100% and the “M1 Activity” value is “+++ (activity was measured to be less than 1.0 μM)”. Also, on M4 muscarinic receptor, the maximum response (Emax) is 25 to 100% and the “M4 Activity” value is “+++ (activity was measured to be less than 1.0 μM)”.

Consider `CCOC(=O)N1CCC(N2CCC3(CC2)CN(C(=O)C(C)C)Cc2ccccc23)CC1` [compound 279], for which, at M1 muscarinic receptor, the Emax lay in the range of 25 to 100% and the “M1 Activity” value is “+++ (activity was measured to be less than 1.0 μM)”. Also, at M4 muscarinic receptor, the Emax was 25 to 100% and the “M4 Activity” value is on record as “+++ (activity was measured to be less than 1.0 μM)”.

For `CCOC(=O)N1CCC(N2CCC3(CC2)CN(C(=O)NC2CCCC2)Cc2ccccc23)CC1` [compound 283], at M1 muscarinic receptor, the Emax is 25 to 100% and the “M1 Activity” value is “+++ (activity was measured to be less than 1.0 μM)”. Also, on M4 muscarinic receptor, the Emax is 25 to 100% and the “M4 Activity” value is given as “+++ (activity was measured to be less than 1.0 μM)”.

With `CCOC(=O)N1CCC(CN2CCC3(CC2)CN(C(=O)C2CCC2)Cc2ccccc23)CC1` [compound 284], on M1 muscarinic receptor, the Emax lay within 25 to 100% and the “M1 Activity” value is “+++ (activity was measured to be less than 1.0 μM)”. Further, at M4 muscarinic receptor, the Emax was 25 to 100% and the “M4 Activity” value is listed as “+++ (activity was measured to be less than 1.0 μM)”.

Take `CCOC(=O)N1CCC(N2CCC3(CC2)CN(C(C)=O)Cc2ccccc23)CC1` [compound 286]: on M1 muscarinic receptor, the Emax is 25 to 100% and the “M1 Activity” value was “+++ (activity was measured to be less than 1.0 μM)”. Moreover, at M4 muscarinic receptor, the Emax was 25 to 100% and the “M4 Activity” value is reported as “+++ (activity was measured to be less than 1.0 μM)”.

`CCCOC(=O)N1CC(CN2CCC3(CC2)CN(C(C)=O)Cc2ccccc23)C1` [compound 287]: at M1 muscarinic receptor, the Emax was less than 25% and the “M1 Activity” value is reported as “+ (activity was measured to be greater than 5.0 μM)”. Moreover, at M4 muscarinic receptor, the Emax was less than 25% and the “M4 Activity” value is “+ (activity was measured to be greater than 5.0 μM)”.

For `CCOC(=O)N1CCC(CN2CCC3(CC2)CN(C(=O)N(C)C)Cc2ccccc23)CC1` [compound 288], at M1 muscarinic receptor, the Emax was in the range of 25 to 100% and the “M1 Activity” value is on record as “+++ (activity was measured to be less than 1.0 μM)”. Also, at M4 muscarinic receptor, the Emax lay within 25 to 100% and the “M4 Activity” value is on record as “+++ (activity was measured to be less than 1.0 μM)”.

Turning to `CC(=O)N1Cc2ccccc2C2(CCN(CC3CCN(C(=O)OC4CCC4)CC3)CC2)C1` [compound 291], at M1 muscarinic receptor, the Emax is less than 25% and the “M1 Activity” value is recorded as “+ (activity was measured to be greater than 5.0 μM)”. Further, at M4 muscarinic receptor, the Emax is less than 25% and the “M4 Activity” value is given as “+ (activity was measured to be greater than 5.0 μM)”.

For `CC(=O)N1Cc2ccccc2C2(CCN(C3CCCCC3)CC2)C1` [compound 294], on M1 muscarinic receptor, the Emax lay within 25 to 100% and the “M1 Activity” value is “+++ (activity was measured to be less than 1.0 μM)”. In addition, at M4 muscarinic receptor, the Emax was in the range of 25 to 100% and the “M4 Activity” value is listed as “+++ (activity was measured to be less than 1.0 μM)”.

As for `CCOC(=O)N1CCC(N2CCC3(CC2)CN(C(=O)C2(C)CC2)Cc2ccccc23)CC1` [compound 295], on M1 muscarinic receptor, the Emax lay within 25 to 100% and the “M1 Activity” value was “++ (activity was measured to be from 1.0 μM to 5.0 μM)”. For the same molecule, at M4 muscarinic receptor, the Emax is less than 25% and the “M4 Activity” value is given as “++ (activity was measured to be from 1.0 μM to 5.0 μM)”.

For `CCCNC(=O)N1Cc2ccccc2C2(CCN(C3CCN(C(=O)OCC)CC3)CC2)C1` [compound 296], at M1 muscarinic receptor, the Emax was in the range of 25 to 100% and the “M1 Activity” value is “+++ (activity was measured to be less than 1.0 μM)”. In addition, at M4 muscarinic receptor, the Emax lay within 25 to 100% and the “M4 Activity” value is reported as “+++ (activity was measured to be less than 1.0 μM)”.

For `CC(=O)N1Cc2ccccc2C2(CCN(Cc3ccccc3O)CC2)C1` [compound 297], at M1 muscarinic receptor, the maximal effect (Emax) was less than 25% and the “M1 Activity” value is reported as “+ (activity was measured to be greater than 5.0 μM)”. In addition, on M4 muscarinic receptor, the Emax was less than 25% and the “M4 Activity” value is “+ (activity was measured to be greater than 5.0 μM)”.

With `CC(=O)N1Cc2ccccc2C2(CCN(Cc3sc(C)nc3C)CC2)C1` [compound 301], at M1 muscarinic receptor, the Emax is less than 25% and the “M1 Activity” value is “+ (activity was measured to be greater than 5.0 μM)”. Moreover, at M4 muscarinic receptor, the Emax was less than 25% and the “M4 Activity” value is recorded as “+ (activity was measured to be greater than 5.0 μM)”.

In the case of `CC(=O)N1Cc2ccccc2C2(CCN(C3CCN(C(=O)O[C@H]4CCOC4)CC3)CC2)C1` [compound 302], on M1 muscarinic receptor, the Emax is 25 to 100% and the “M1 Activity” value is given as “+++ (activity was measured to be less than 1.0 μM)”. At M4 muscarinic receptor, the Emax fell in the range of 25 to 100% and the “M4 Activity” value was “+++ (activity was measured to be less than 1.0 μM)”.

For the molecule `CCOC(=O)N1CCC(CN2CCC3(CC2)CN(C(=O)OC(C)C)Cc2ccccc23)CC1` [compound 309], on M1 muscarinic receptor, the Emax fell in the range of 25 to 100% and the “M1 Activity” value is recorded as “+++ (activity was measured to be less than 1.0 μM)”. Further, at M4 muscarinic receptor, the maximal effect (Emax) fell in the range of 25 to 100% and the “M4 Activity” value was “+++ (activity was measured to be less than 1.0 μM)”.

With `CCOC(=O)N1CCC(N2CCC3(CC2)CN(S(C)(=O)=O)Cc2ccccc23)CC1` [compound 311], on M1 muscarinic receptor, the Emax was 25 to 100% and the “M1 Activity” value is on record as “+++ (activity was measured to be less than 1.0 μM)”. Further, at M4 muscarinic receptor, the maximal effect (Emax) was 25 to 100% and the “M4 Activity” value is given as “+++ (activity was measured to be less than 1.0 μM)”.

In the case of `CC(=O)N1Cc2ccccc2C2(CCN(Cc3ccc(F)cc3F)CC2)C1` [compound 312], at M1 muscarinic receptor, the Emax is less than 25% and the “M1 Activity” value is on record as “+ (activity was measured to be greater than 5.0 μM)”. Further, at M4 muscarinic receptor, the Emax was less than 25% and the “M4 Activity” value was “+ (activity was measured to be greater than 5.0 μM)”.

With `CCOC(=O)N1CCC(N2CCC3(CC2)CN(CCC(C)C)Cc2ccccc23)CC1` [compound 313, ethyl 4-(2-isopentyl-2,3-dihydro-1H-spiro[isoquinoline-4,4′-piperidine]-1′-yl)piperidine-1-carboxylate], on M1 muscarinic receptor, the Emax is greater than 100% and the “M1 Activity” value is recorded as “+++ (activity was measured to be less than 1.0 μM)”. On M4 muscarinic receptor, the maximal response (Emax) lay within 25 to 100% and the “M4 Activity” value is recorded as “+++ (activity was measured to be less than 1.0 μM)”.

The values above are taken from patent publication US7863449B2, “Modulators of muscarinic receptors” (Vertex Pharmaceuticals Incorporated, priority 2004, dated 2011).
